Data taken from US20230120597A1, “CO-AGONISTS AT GLP-1 AND GIP RECEPTORS SUITABLE FOR ORAL DELIVERY” (Novo Nordisk A/S, priority 2020, published 2023).
Read-outs that look alike come from different tables or passages of the source. Starred links: 1 amine or outer side, 2 acyl side, 3 side chain; linkers in the order of their positions; H or OH if unused. Non-standard residues stand in square brackets, D forms with d. Residues, ends and D or L forms follow the SMILES beside them. Groups on a side chain read outwards from the residue. *: point of attachment. C18 diacid = O=C(O)CCCCCCCCCCCCCCCCC(=O)*; γGlu = O=C(O)[C@H](CCC(=O)[*:2])N[*:1]; εLys = N[C@@H](CCCCN[*:1])C(=O)[*:2]; Aib = CC(C)(N)C(=O)O

Experiments:
[1] = molecular target: T1, human GLP-1 receptor (Homo sapiens, UniProt P43220); assay: In vitro functional potency, CRE luciferase reporter gene assay, whole BHK cells expressing hGLP-1R; type: cell-based; conditions: BHK CRE luc2P hGLP-1R cells
T1 construct: expressed in transfected cells; host or cells: BHK (parent line BHKTS13), clone BHK CRE luc2P hGLP-1R
T1 sequence (P43220 24-463): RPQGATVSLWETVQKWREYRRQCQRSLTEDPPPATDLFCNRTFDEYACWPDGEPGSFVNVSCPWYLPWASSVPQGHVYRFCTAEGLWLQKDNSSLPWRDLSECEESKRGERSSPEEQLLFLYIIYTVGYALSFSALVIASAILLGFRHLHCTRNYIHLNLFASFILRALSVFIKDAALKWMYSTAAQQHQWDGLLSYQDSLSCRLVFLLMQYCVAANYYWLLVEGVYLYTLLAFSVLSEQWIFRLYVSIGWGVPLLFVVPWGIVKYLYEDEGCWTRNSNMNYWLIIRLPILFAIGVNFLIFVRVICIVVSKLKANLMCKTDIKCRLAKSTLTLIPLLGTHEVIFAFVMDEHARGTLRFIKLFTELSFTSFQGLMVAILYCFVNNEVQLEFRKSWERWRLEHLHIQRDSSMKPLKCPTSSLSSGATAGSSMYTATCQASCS
Method: (§1) The in vitro functional potency is the measure of target receptor activation in a whole cell assay.
(§2) In vitro functional potency was determined by measuring the response of the target receptor in a reporter gene assay in individual cell lines. […] When the respective receptor is activated, it results in the production of cAMP, which in turn results in expression of the luciferase protein. When assay incubation is completed, luciferase substrate (luciferin) is added resulting in the enzymatic conversion of luciferin to oxyluciferin and producing bioluminescence. The luminescence is measured as the readout for the assay.
(§3) The cells lines used in these assays were BHK cells with BHKTS13 as a parent cell line. The cell lines were derived from a clone containing the CRE luciferase element and were established by further transfection with the respective human receptor to obtain the relevant cell line: BHK CRE luc2P hGLP-1R or BHK CRE luc2P hGIPR. The cells were cultured at 37° C. with 5% CO2 in Cell Culture Medium. They were aliquoted and stored in liquid nitrogen. The cells were kept in continuous culture and were seeded out the day before each assay.
(§4) GLP-1R Cell Culture Medium consisted of DMEM medium with 10% FBS, 500 μg/mL G418, and 300 μg/mL hygromycin. GIPR Cell Culture Medium consisted of DMEM medium with 10% FBS, 400 μg/mL G418, and 300 μg/mL hygromycin. Assay Buffer consisted of DMEM w/o phenol red, 10 mM Hepes, 1× Glutamax. 1% ovalbumin, and 0.1% Pluronic F-68 with the addition of HSA at twice the final assay concentration.
(§5) Procedure • 1) Cells were plated at 5000 cells/well and incubated overnight in the assay plate. • 2) Cells were washed once in DPBS. • 3) Stocks of the test compounds and reference compounds in concentrations ranging from […] were diluted 1:150 in Assay Buffer. Compounds were then diluted 1:10 in column 1 of a 96 deep well dilution plate and then carried across the row creating a 3.5 fold, 12 point dilution curve. • 4) Assay Buffer (50 μl aliquot) with or without HSA was added to each well in the assay plate. • 5) A 50 μl aliquot of compound or blank was transferred from the dilution plate to the assay plate containing the Assay Buffer with or without HSA. • 6) The assay plate was incubated for 3 h in a 5% CO2 incubator at 37° C. • 7) The cells were washed once with DPBS. • 8) A 100 μl aliquot of DPBS was added to each well of the assay plate. • 9) A 100 μl aliquot of steadylite plus reagent (light sensitive) was added to each well of the assay plate. • 10) Each assay plate was covered with aluminum foil to protect it from light and shaken at 250 RPM for 30 min at room temperature. • 11) Each assay plate was read in a microtiter plate reader.
(§6) The data from the microtiter plate reader was first regressed in an Excel in order to calculate the x-axis, log scale concentrations based on the individual test compound's stock concentration and the dilutions of the assay. […] The software performs a non-linear regression (log(agonist) vs response). A minimum of two replicates was measured for each sample. The reported values are averages of the replicates.

[2] = molecular target: T2, human GIP receptor (Homo sapiens, UniProt P48546); assay: In vitro functional potency, CRE luciferase reporter gene assay, whole BHK cells expressing hGIPR; type: cell-based; conditions: BHK CRE luc2P hGIPR cells
T2 construct: expressed in transfected cells; host or cells: BHK (parent line BHKTS13), clone BHK CRE luc2P hGIPR
T2 sequence (P48546 22-466): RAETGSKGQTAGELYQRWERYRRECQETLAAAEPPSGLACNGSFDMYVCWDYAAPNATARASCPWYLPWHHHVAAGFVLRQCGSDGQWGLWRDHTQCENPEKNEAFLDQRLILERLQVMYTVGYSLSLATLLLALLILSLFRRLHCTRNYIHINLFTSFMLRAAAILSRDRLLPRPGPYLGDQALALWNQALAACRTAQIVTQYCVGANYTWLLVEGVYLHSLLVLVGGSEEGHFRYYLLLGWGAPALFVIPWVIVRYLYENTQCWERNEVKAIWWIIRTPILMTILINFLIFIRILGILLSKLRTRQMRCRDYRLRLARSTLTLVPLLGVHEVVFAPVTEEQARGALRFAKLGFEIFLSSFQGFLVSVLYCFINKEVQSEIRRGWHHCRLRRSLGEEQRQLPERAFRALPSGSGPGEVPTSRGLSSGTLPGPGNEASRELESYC
Method: as §1, §2, §3, §4, §5, §6

[3] = Pharmacokinetic study in dogs, oral dosing of tablet compositions with SNAC; type: in vivo, Beagle dogs; conditions: dog, in vivo, po
Method: The purpose of this example is to determine the half-life and plasma exposure in vivo of the compounds of the present invention after p.o. administration to beagle dogs, i.e. the terminal half-life and concentration of test substance that reaches circulation with time. This is done in a pharmacokinetic (PK) study, where these parameters of the compound in question are determined. By terminal half-life is generally meant the period of time it takes to halve a certain plasma concentration, measured after the initial distribution phase.
The amount of SNAC in the tablet composition was 100-300 mg, the amount of magnesium stearate in the tablet composition was 7.7 mg, and the target amount of each test substance in the tablet composition was 3-4 mg.
Male beagle dogs, 1-7 years of age and weighing 9-17 kg during the study period, were included in the study. The dogs were dosed in a fasting state. The dogs were group housed in pens (12 hours light: 12 hours dark), and fed individually and restrictedly once daily with Royal Canin Medium Adult dog food (Royal Canin Products, China Branch, or Brogaarden A/S, Denmark). The dogs were used for repeated PK studies with a suitable wash-out period between successive dosing. An appropriate acclimatization period was given prior to initiation of the first PK study. All handling, dosing, and blood sampling of the animals were performed by trained and skilled staff. Before the studies, the dogs were fasted overnight and from 0 to 4 hours after dosing. The dogs were restricted to water 1 hour before dosing until 4 hours after dosing, but otherwise had ad libitum access to water during the whole period.
The compositions were administered by a single oral dosing to the dogs in groups of 6-8 dogs. […] The mouth was then closed, and 10 mL of tap water was given by syringe or gavage to facilitate swallowing of the tablet.
One blood sample was drawn before dosing, and additional samples were drawn at predefined time points after dosing for up to 240 hours, such as up to 10 hours, to adequately cover the full plasma concentration-time absorption profile of the test substance. For each blood sample time point, approximately 0.8 mL of whole blood was collected in a 1.5 mL EDTA-coated tube, which was gently turned to mix the sample with EDTA. Blood samples were collected in EDTA buffer (8 mM) and then centrifuged at 4° C. 2000 g for 10 minutes. Plasma was pipetted into Micronic tubes on dry ice, and kept at −20° C. or lower until analysis. Blood samples were taken as appropriate, for example from a venflon in the cephalic vein in the front leg for the first 2 hours and then with syringe from the jugular vein for the rest of the time points. The first few drops were allowed to drain from the venflon to avoid heparin saline from the venflon in the sample.
All blood samples were collected into test tubes containing EDTA for stabilisation and kept on ice until centrifugation. Plasma was separated from whole blood by centrifugation and the plasma was stored at −20° C. or lower until analysis.
The plasma was analysed for test substance using LC-MS (Liquid Chromatography-Mass Spectrometry) as known to the person skilled in the art. […] RP-HPLC separation was achieved using a linear gradient of 1:1 acetonitrile/methanol in 1% aqueous formic acid using either: a Phenomenex Onyx Monolithic C18 column (50×2.0 mm) and a flow rate of 0.8 mL/min at 30° C.; or an Agilent Poroshell 120 SB-C18 column (50×2.1 mm, 2.7 μm) at a flow rate of 0.4 mL/min at 60° C. The mass spectrometer was operated in either positive ionization SIM mode or positive ionization PRM mode.
For each individual animal, a plasma concentration-time profile was analysed by a non-compartmental model in Pharsight Phoenix WinNonLin ver.

Row | Compound | EC50 ([1]; 0% HSA, read-out: hGLP-1R, CRE Luc 0% HSA EC50) | EC50 ([1]; hGLP-1R, CRE Luc 1% HSA EC50, 1% HSA) | EC50 ([2]; 0% HSA, read-out: hGIPR, CRE Luc 0% HSA EC50) | EC50 ([2]; hGIPR, CRE Luc 1% HSA EC50, 1% HSA) | AUC/Dose [3] | Cmax/Dose [3]
1 | CC(C)C[C@H](NC(=O)[C@H](CC(C)C)NC(=O)[C@H](Cc1c[nH]c2ccccc12)NC(=O)[C@H](CC(N)=O)NC(=O)[C@@H](NC(=O)[C@H](Cc1ccccc1)NC(=O)[C@H](C)NC(=O)[C@H](CCC(N)=O)NC(=O)[C@H](C)NC(=O)[C@H](C)NC(=O)[C@H](CCC(N)=O)NC(=O)[C@H](CCCCNC(=O)[C@@H](N)CCCCNC(=O)[C@@H](N)CCCCNC(=O)CC[C@H](NC(=O)CCCCCCCCCCCCCCCCC(=O)O)C(=O)O)NC(=O)[C@H](CCC(=O)O)NC(=O)[C@H](CC(C)C)NC(=O)[C@H](Cc1ccc(O)cc1)NC(=O)[C@H](Cc1ccc(O)cc1)NC(=O)[C@H](CO)NC(=O)[C@H](Cc1ccc(O)cc1)NC(=O)[C@H](CC(=O)O)NC(=O)[C@H](CO)NC(=O)[C@@H](NC(=O)[C@H](Cc1ccccc1)NC(=O)[C@@H](NC(=O)CNC(=O)[C@H](CCC(=O)O)NC(=O)C(C)(C)NC(=O)[C@@H](N)Cc1ccc(O)cc1)[C@@H](C)O)[C@@H](C)O)C(C)C)C(=O)N[C@@H](C)C(=O)NCC(=O)NCC(=O)N1CCC[C@H]1C(=O)N[C@@H](CO)C(=O)N[C@@H](CO)C(=O)NCC(=O)N[C@@H](C)C(=O)N1CCC[C@H]1C(=O)N1CCC[C@H]1C(=O)N1CCC[C@H]1C(=O)N[C@@H](CO)C(N)=O [Compound No. 4] (H-Y[Aib]EGTFTSDYSYYLEK([εLys-εLys-γGlu-C18 diacid])QAAQAFVNWLLAGGPSSGAPPPS-NH2; N-terminus assumed) | 6.6 pM | 484 pM | 8.5 pM | 294 pM |  | 
2 | CC[C@H](C)[C@H](NC(=O)[C@H](Cc1ccccc1)NC(=O)[C@H](CCC(=O)O)NC(=O)[C@H](CCCNC(=N)N)NC(=O)[C@H](C)NC(=O)[C@H](C)NC(=O)[C@H](CCC(N)=O)NC(=O)[C@H](CCC(=O)O)NC(=O)[C@H](CCC(=O)O)NC(=O)[C@H](CC(C)C)NC(=O)[C@H](CC(C)C)NC(=O)[C@H](CCCCNC(=O)[C@@H](N)CCCCNC(=O)[C@@H](N)CCCCNC(=O)CC[C@H](NC(=O)CCCCCCCCCCCCCCCCC(=O)O)C(=O)O)NC(=O)[C@H](CO)NC(=O)[C@H](Cc1ccc(O)cc1)NC(=O)[C@H](CC(=O)O)NC(=O)[C@H](CO)NC(=O)[C@@H](NC(=O)[C@H](Cc1ccccc1)NC(=O)[C@@H](NC(=O)CNC(=O)[C@H](CCC(=O)O)NC(=O)C(C)(C)NC(=O)[C@@H](N)Cc1ccc(O)cc1)[C@@H](C)O)[C@@H](C)O)C(=O)N[C@@H](CCC(=O)O)C(=O)N[C@@H](Cc1c[nH]c2ccccc12)C(=O)N[C@@H](CC(C)C)C(=O)N[C@@H](CC(C)C)C(=O)N[C@@H](C)C(=O)NCC(=O)NCC(=O)N1CCC[C@H]1C(=O)N[C@@H](CO)C(=O)N[C@@H](CO)C(=O)NCC(=O)N[C@@H](C)C(=O)N1CCC[C@H]1C(=O)N1CCC[C@H]1C(=O)N1CCC[C@H]1C(=O)N[C@@H](CO)C(=O)O [Compound No. 40] |  |  |  |  | 27.0 kg·h/L | 
3 | CC[C@H](C)[C@H](NC(=O)[C@H](Cc1ccccc1)NC(=O)[C@H](CCC(=O)O)NC(=O)[C@H](CCCNC(=N)N)NC(=O)[C@H](C)NC(=O)[C@H](C)NC(=O)[C@H](CCC(N)=O)NC(=O)[C@H](CCC(=O)O)NC(=O)[C@H](CCC(=O)O)NC(=O)[C@H](CC(C)C)NC(=O)[C@H](CC(C)C)NC(=O)[C@@H](NC(=O)[C@H](CO)NC(=O)[C@H](Cc1ccc(O)cc1)NC(=O)[C@H](CC(=O)O)NC(=O)[C@H](CO)NC(=O)[C@@H](NC(=O)[C@H](Cc1ccccc1)NC(=O)[C@@H](NC(=O)CNC(=O)[C@H](CCC(=O)O)NC(=O)C(C)(C)NC(=O)[C@@H](N)Cc1ccc(O)cc1)[C@@H](C)O)[C@@H](C)O)[C@@H](C)CC)C(=O)N[C@@H](CCC(=O)O)C(=O)N[C@@H](Cc1c[nH]c2ccccc12)C(=O)N[C@@H](CC(C)C)C(=O)N[C@@H](CC(C)C)C(=O)N[C@@H](C)C(=O)NCC(=O)NCC(=O)N1CCC[C@H]1C(=O)N[C@@H](CO)C(=O)N[C@@H](CCCCNC(=O)[C@@H](N)CCCCNC(=O)[C@@H](N)CCCCNC(=O)CC[C@H](NC(=O)CCCCCCCCCCCCCCCCC(=O)O)C(=O)O)C(=O)NCC(=O)N[C@@H](C)C(=O)N1CCC[C@H]1C(=O)N1CCC[C@H]1C(=O)N1CCC[C@H]1C(=O)N[C@@H](CO)C(=O)O [Compound No. 43] (H-Y[Aib]EGTFTSDYSILLEEQAAREFIEWLLAGGPSK([εLys-εLys-γGlu-C18 diacid])GAPPPS-OH) |  |  |  |  | 21.4 kg·h/L | 0.22 kg/L
